Where two headings read alike, the source gives them in different places.
Legend:
MCF-7 ADRr line = test: synergistic antiproliferative effect of a combination of ADR and silybin (isobolic method); type: cell-based, human
Protocol: (§1) The determination of the binding to the estrogen receptor has been carried out on cells of ovary tumor or of other organ tumors, cultured in monolayers using as medium the Dulbecco Modified Medium added with calf serum and with 200 unities/ml of penicillin. The cells used for the tests have been trypsinated every week and placed on a plate at a […] density and incubated at 37° C. under air atmosphere containing 5% CO2 and humidity. […] After 24 hours the medium is substituted with fresh medium and the flavanolignanes dissolved in absolute ethanol are added. […] The treatment described above is repeated at 24 hour intervals during the 72 hours of the test time. The inhibition of the cell proliferation is evaluated by direct count of the cells, comparing the growth of the controls versus that of the treated samples.
(§2) The inhibition on cell proliferation is evaluated by direct count of the cells, comparing the growth of controls versus that of the treated ones.
(§3) In order to verify wether such an effect of a combination of silybin with adriamycin or cisplatin is due to a synergistic or an additive action, the data have been analyzed with the isobolic method by Berenbau (Adv. Cancer Res., 25, 269, 1981).

A2780 WT cells [1] = test: antiproliferative effect on A2780 WT ovary carcinoma cells (direct cell count); type: cell-based, human; conditions: for IC50: Homo sapiens
Protocol: as §1, with “samples. The inhibition on cell proliferation is evaluated by direct count of the cells, comparing the growth of controls versus that of the treated ones. […] The results are the average of two experiments carried out in triplicated.” for “samples.”

[2] = tested on: tumors implanted in the nude athymic mouse; test: inhibition of growth of tumors implanted in nude athymic mouse; conditions: test not specified (follows in vivo mouse and man results)
Protocol: Moreover, the above flavanolignanes were evidenced to inhibit in vivo the cell proliferation, by measuring the size of tumors implanted in the nude athymic mouse according to the conventional conditions of literature. The treatment of the animals at doses from 1 to 100 mg/Kg evidenced a marked regression of the studied tumors until their disappearance in a high percentage of individuals.
In the in vitro tests flavanolignanes have been used as such, whereas in in vivo tests the complexes thereof with phospholipids, described in EP-A-0209038, have been used.

A2780 WT cell line = test: synergistic antiproliferative effect of the CIS-silybin combination (isobolic method); type: cell-based, human
Protocol: (§4) The determination of the binding to the estrogen receptor has been carried out on cells of ovary tumor or of other organ tumors, cultured in monolayers using as medium the Dulbecco Modified Medium added with calf serum and with 200 unities/ml of penicillin. The cells used for the tests have been trypsinated every week and placed on a plate at a […] density and incubated at 37° C. under air atmosphere containing 5% CO2 and humidity. […] After 24 hours the medium is substituted with fresh medium and the flavanolignanes dissolved in absolute ethanol are added. The controls are treated in the same experimental conditions only with the vehicle in the absence of the active ingredient. The treatment described above is repeated at 24 hour intervals during the 72 hours of the test time. The inhibition of the cell proliferation is evaluated by direct count of the cells, comparing the growth of the controls versus that of the treated samples.
as §2
As reported in Table III, when silybin is used in combination with CIS, a synergistic inhibition effect on the growth is observed, compared with corresponding doses of the medicaments used alone.
as §3

A2780 CIS cells = test: antiproliferative effect on A2780 CIS (CIS resistant) ovary carcinoma cells; type: cell-based; conditions: Homo sapiens, A2780cis, ovary ca CIS resistant, exposure 72 h
Protocol: as §4, §2

MCF-7 ADRr cells = test: antiproliferative effect on MCF-7 ADRr (ADR resistant) breast carcinoma cells; type: cell-based; conditions: Homo sapiens, MCF7, breast ca ADR resistant, exposure 72 h
Protocol: as §4, §2

OVCA-433 cells = test: antiproliferative effect on OVCA-433 ovary carcinoma cells; type: cell-based; conditions: Homo sapiens, OVCA433; OVCA-433, ovary ca, exposure 72 h
Protocol: as §4, §2

[3] = tested on: different stabilized cell lines, including MCF-7 ADRr, A2780 CIS; test: antiproliferative effect on different stabilized cell lines (overall statement); type: cell-based, human
Excerpt: In order to verify the antiproliferative effect of flavanolignanes, the growth curves of different stabilized cell lines deriving from various human tumors have been examined in the presence of the compounds and their capability to interact with the Type II EBS in ovary carcinoma samples has been evaluated.
as §4, §2

A2780 WT cells [4] = test: cytofluorimetric analysis of cell cycle phase distribution; type: cell-based, human
Protocol: *A2780 WT cells were cultured for 2 days with or without 10 μM silybin.

[5] = tested on: human tumor primary cultures; test: antiproliferative activity on human tumor primary cultures; type: cell-based
Excerpt: A plurality of the tested flavanolignanes have a similar behaviour. In Table V, the data relating to silybin, silidianin, silymarin and dehydrosilybin are reported. The diastereomeric forms of silybin and isosilybin are as well active in these tests.

[6] = molecular target: estrogen receptors of type II; conditions: read-out: dissociation affinity constant KD; cited from earlier work
human leukemia cells = conditions: cited from earlier work
other cell lines = conditions: cited from earlier work
[7] = isoeffective with ADR 0.1 μg/ml + silybin 0.1 μM (80% of control)
[8] = isoeffective with ADR 0.5 μg/ml + silybin 0.1 μM (76% of control)
[9] = isoeffective with ADR 1 μg/ml + silybin 0.1 μM (69% of control)
[10] = isoeffective with ADR 2.5 μg/ml + silybin 0.1 μM (62% of control)
[11] = isoeffective with ADR 5 μg/ml + silybin 0.1 μM (47% of control)
[12] = isoeffective with ADR 10 μg/ml + silybin 0.1 μM (39% of control)
[13] = A2780 WT, ovary ca, exposure 72 h, read-out: IC50
[14] = isoeffective with CIS 0.1 μg/ml + silybin 0.1 μM (67% control)
[15] = isoeffective with CIS 0.1 μg/ml + silybin 1 μM (54% control)
[16] = isoeffective with CIS 0.25 μg/ml + silybin 0.1 μM (58% control)
[17] = isoeffective with CIS 0.25 μg/ml + silybin 1 μM (35% control)
[18] = isoeffective with CIS 0.5 μg/ml + silybin 0.1 μM (37% control)
[19] = isoeffective with CIS 0.5 μg/ml + silybin 1 μM (25% control)
[20] = isoeffective with CIS 1 μg/ml + silybin 0.1 μM (18% control)
[21] = isoeffective with CIS 1 μg/ml + silybin 1 μM (12% control)

For `COc1cccc2c1C(=O)c1c(O)c3c(c(O)c1C2=O)C[C@@](O)(C(=O)CO)C[C@@H]3O[C@H]1C[C@H](N)[C@H](O)[C@H](C)O1` [ADR, adriamycin, reference compound], the “ADR (isoeffective dose alone)” value (MCF-7 ADRr line; [7]) was 0.6 μM/ml, the “ADR (isoeffective dose alone)” value (MCF-7 ADRr line; [8]) was 0.9 μM/ml and the “ADR (isoeffective dose alone)” value (MCF-7 ADRr line; [9]) was 2.5 μM/ml. For the same molecule, the “ADR (isoeffective dose alone)” value (MCF-7 ADRr line; [10]) was 5.4 μM/ml, the “ADR (isoeffective dose alone)” value (MCF-7 ADRr line; [11]) was greater than 10 μM/ml and the “ADR (isoeffective dose alone)” value (MCF-7 ADRr line; [12]) was greater than 10 μM/ml.

For `COc1cc(C2C3C=C([C@H]4Oc5cc(O)cc(O)c5C(=O)[C@@H]4O)C4C2COC4(O)C3=O)ccc1O` (stereo partly shown) [silidianin], the IC50 (A2780 WT cells [1]; [13]) was 12 µM and the “activity” value [2] was “particularly marked activity”.

For `N.N.[Cl][Pt][Cl]` [CIS, cisplatin, reference compound], the “CIS (isoeffective dose alone)” value (A2780 WT cell line; [14]) was 0.23 µg/mL, the “CIS (isoeffective dose alone)” value (A2780 WT cell line; [15]) was 0.34 µg/mL and the “CIS (isoeffective dose alone)” value (A2780 WT cell line; [16]) was 0.31 µg/mL. The “CIS (isoeffective dose alone)” value (A2780 WT cell line; [17]) was 0.56 µg/mL, the “CIS (isoeffective dose alone)” value (A2780 WT cell line; [18]) was 0.54 µg/mL and the “CIS (isoeffective dose alone)” value (A2780 WT cell line; [19]) was 0.82 µg/mL. For the same molecule, the “CIS (isoeffective dose alone)” value (A2780 WT cell line; [20]) was greater than 1 µg/mL and the “CIS (isoeffective dose alone)” value (A2780 WT cell line; [21]) was greater than 1 µg/mL.

With `COc1cc(C2Oc3cc(C4Oc5cc(O)cc(O)c5C(=O)C4O)ccc3OC2CO)ccc1O` (stereo not shown) [silybin] the IC50 (A2780 CIS cells) was 14 µM, the IC50 (MCF-7 ADRr cells) was 24 µM and the IC50 (OVCA-433 cells) was 4.8 µM. For the same molecule, the “Silybin (isoeffective dose alone)” value (MCF-7 ADRr line; [7]) was 0.1 µM, the “Silybin (isoeffective dose alone)” value (MCF-7 ADRr line; [8]) was 0.36 µM and the “Silybin (isoeffective dose alone)” value (MCF-7 ADRr line; [9]) was 2.2 µM. The “Silybin (isoeffective dose alone)” value (MCF-7 ADRr line; [10]) was 7 µM, the “Silybin (isoeffective dose alone)” value (MCF-7 ADRr line; [11]) was 35 µM and the “Silybin (isoeffective dose alone)” value (MCF-7 ADRr line; [12]) was greater than 50 µM. For the same molecule, the “antiproliferative effect” value ([3]; 0.01 μM to 20 μM, FIG. 1 and Table I) was “dose-dependent antiproliferative effect”, the IC50 ([3]; Homo sapiens, different cell lines, silybin 0.01 μM to 20 μM, read-out: IC50 (range over cell lines)) was 4.8 to 24 µM and the IC50 (A2780 WT cells [1]; [13]) was 12 µM. The “Silybin (isoeffective dose alone)” value (A2780 WT cell line; [14]) was 2.9 µM, the “Silybin (isoeffective dose alone)” value (A2780 WT cell line; [15]) was 8.2 µM and the “Silybin (isoeffective dose alone)” value (A2780 WT cell line; [16]) was 6.4 µM. For the same molecule, the “Silybin (isoeffective dose alone)” value (A2780 WT cell line; [17]) was greater than 50 µM, the “Silybin (isoeffective dose alone)” value (A2780 WT cell line; [18]) was greater than 50 µM and the “Silybin (isoeffective dose alone)” value (A2780 WT cell line; [19]) was greater than 50 µM. For the same molecule, the “Silybin (isoeffective dose alone)” value (A2780 WT cell line; [20]) was greater than 50 µM, the “Silybin (isoeffective dose alone)” value (A2780 WT cell line; [21]) was greater than 50 µM and the “cells in phase G2/M” value (A2780 WT cells [4]; 10 μM silybin, 2 days, control 10.3) was 8.6%. The “cells in phase S” value (A2780 WT cells [4]; 10 μM silybin, 2 days, control 31) was 20.9%, the “cells in phase G0/G1” value (A2780 WT cells [4]; 10 μM silybin, 2 days, control 58.7) was 70.5% and the “effect on percentage of phase G0/G1 cells” value (A2780 WT cells [4]; A2780 WT) was “mild increase”. The “effect on percentage of phase S cells” value (A2780 WT cells [4]; A2780 WT) was “decrease in the percentage of phase S cells” and the “antiproliferative activity” value [5] was “antiproliferative activity”.

In the case of `COc1cc(C2Oc3ccc(C4Oc5cc(O)cc(O)c5C(=O)C4O)cc3OC2CO)ccc1O` (stereo not shown) [isosilybin], the “activity in these tests” value (A2780 WT cells [1]; diastereomeric forms, growth tests of Table V) is reported as “active”.

For `C[C@]12CC[C@@H]3c4ccc(O)cc4CC[C@H]3[C@@H]1CC[C@@H]2O` [estradiol], the Kd [6] is given as 0.01 to 0.02 µM.

For `O=c1c(O)c(-c2ccc(O)c(O)c2)oc2cc(O)cc(O)c12` [quercetin], the “inhibiting activity on proliferation” value (human leukemia cells) is given as “some inhibiting activity”, the “activity with the usual chemotherapeuticals” value (other cell lines) is given as “synergistic activity” and the “inhibiting activity on proliferation” value (other cell lines; other cell lines) is given as “some inhibiting activity”.

In the case of `COc1cc(C2Oc3cc(-c4oc5cc(O)cc(O)c5c(=O)c4O)ccc3OC2CO)ccc1O` (stereo not shown) [dehydrosilybin], the IC50 (A2780 WT cells [1]; A2780, 72 h) is reported as 2.88 µM and the “activity” value [2] is reported as “particularly marked activity”.
